Results published in the C3SDB collision cross section collection.

Conditions: instrument: DT, stepped-field

SMILES	collision cross section (N2) ([M+H]+) [Å²]	collision cross section (N2) ([M+K]+) [Å²]	collision cross section (N2) ([M+Na]+) [Å²]	also measured
OC[C@H]1O[C@@H]2O[C@H]3[C@H](O)[C@@H](O)[C@@H](O[C@H]4[C@H](O)[C@@H](O)[C@@H](O[C@H]5[C@H](O)[C@@H](O)[C@@H](O[C@H]6[C@H](O)[C@@H](O)[C@@H](O[C@H]7[C@H](O)[C@@H](O)[C@@H](O[C@H]1[C@H](O)[C@H]2O)O[C@@H]7CO)O[C@@H]6CO)O[C@@H]5CO)O[C@@H]4CO)O[C@@H]3CO [Alpha-Cyclodextrin]	285.2	287.7	285.5	–
NCCCC[C@H](NC(=O)[C@H](CC(=O)O)NC(=O)CNC(=O)[C@@H](N)CC(=O)O)C(=O)O [DGDK]	195.8	–	–	–
CC(C)[C@H](NC(=O)[C@@H](N)CC(=O)O)C(=O)N[C@@H](CS)C(=O)N[C@@H](CCCCN)C(=O)O [DVCK]	204.7	–	–	–
CC(C)C[C@H](NC(=O)[C@H](Cc1ccc(O)cc1)NC(=O)[C@H](C)NC(=O)[C@H](C)NC(=O)[C@@H](N)Cc1ccccc1)C(=O)N[C@@H](CCC(=O)O)C(=O)N[C@@H](CCCNC(=N)N)C(=O)O [FAAYLER]	295.5	–	–	–
NCCCC[C@H](NC(=O)[C@H](CC(N)=O)NC(=O)[C@H](CCC(N)=O)NC(=O)[C@@H](N)Cc1ccccc1)C(=O)O [FQNK]	–	–	243.9	–
N=C(N)NCCC[C@H](NC(=O)[C@H](CC(=O)O)NC(=O)[C@H](CO)NC(=O)[C@H](CO)NC(=O)[C@@H](N)Cc1ccccc1)C(=O)O [FSSDR]	237.3	–	–	–
NCCCC[C@H](NC(=O)CNC(=O)[C@H](Cc1c[nH]c2ccccc12)NC(=O)[C@@H](N)Cc1ccccc1)C(=O)O [FWGK]	231	–	–	–
CCCCCCCCCCCCC=CC[C@@H](O)[C@H](CO[C@@H]1O[C@H](CO)[C@@H](O)C(O)C1O)NC(=O)CC=CCC=CCCCCCCCCCCCCCCC (stereo partly drawn) [GlcCer(40:3)]	–	–	295.8	–
CCCCC=CCC=CCC=CCC=CCC=CCC=CCC=CCC=CCC(=O)N[C@@H](CO[C@@H]1O[C@H](CO)[C@@H](O)C(O)C1O)[C@H](O)CC=CCCCCCCCCCCCC (stereo partly drawn) [GlcCer(47:9)]	–	316.4	–	–
CCC(C)[C@H](N)C(=O)NCC(=O)N[C@@H](CO)C(=O)N[C@@H](CCC(=O)O)C(=O)N[C@H](C(=O)N[C@@H](Cc1ccc(O)cc1)C(=O)N[C@@H](Cc1c[nH]cn1)C(=O)N[C@@H](CC(N)=O)C(=O)N[C@@H](CC(C)C)C(=O)N[C@@H](CCCCN)C(=O)O)C(C)C (stereo partly drawn) [IGSEVYHNLK]	348.4	–	–	–
CCC(C)[C@H](N)C(=O)N[C@@H](Cc1c[nH]cn1)C(=O)N[C@@H](CCC(=O)O)C(=O)N[C@@H](Cc1ccc(O)cc1)C(=O)N[C@@H](CCCCN)C(=O)O (stereo partly drawn) [IHEYK]	258.5	–	–	–
CC(C)C[C@H](N)C(=O)N[C@@H](Cc1c[nH]c2ccccc12)C(=O)N[C@@H](CO)C(=O)N[C@@H](C)C(=O)N[C@@H](CCCCN)C(=O)O [LWSAK]	238.6	–	–	–
CC(=O)N[C@H]1[C@H](O[C@H]2[C@@H](O)[C@@H](CO)O[C@@H](O[C@@H]([C@H](O)[C@@H](O)C=O)[C@H](O)CO)[C@@H]2O)O[C@H](CO)[C@@H](O[C@@H]2O[C@@H](C)[C@@H](O)[C@@H](O)[C@@H]2O)[C@@H]1O[C@@H]1O[C@H](CO)[C@H](O)[C@H](O)[C@H]1O [Lacto-N-Fucopentaose II]	–	267.2	271.1	collision cross section (N2) ([M+Rb]+): 278.4 Å²
CC(=O)N[C@H]1[C@H](O[C@H]2[C@@H](O)[C@@H](CO)O[C@@H](O[C@H]3[C@H](O)[C@@H](O)C(O)O[C@@H]3CO)[C@@H]2O)O[C@H](CO)[C@@H](O)[C@@H]1O[C@@H]1O[C@H](CO)[C@H](O)[C@H](O)[C@H]1O[C@@H]1O[C@@H](C)[C@@H](O)[C@@H](O)[C@@H]1O (stereo partly drawn) [Lacto-N-Fucopentaose I]	–	274.7	276.1	collision cross section (N2) ([M+Cs]+): 275.6 Å²; collision cross section (N2) ([M+Li]+): 269.6 Å²; collision cross section (N2) ([M+Rb]+): 275.2 Å²
OC[C@H]1O[C@@H](O[C@H]2[C@H](O)[C@@H](O)[C@@H](O)O[C@@H]2CO)[C@H](O)[C@@H](O)[C@H]1O [Lactose]	–	–	178.1	collision cross section (N2) ([M+Li]+): 186.3 Å²
CCC(C)[C@H](NC(=O)[C@@H](NC(=O)[C@@H](N)CCSC)C(C)C)C(=O)N[C@@H](CCCNC(=N)N)C(=O)O (stereo partly drawn) [MVIR]	228.7	–	–	–
N=C(N)NCCC[C@H](NC(=O)[C@H](CC(N)=O)NC(=O)[C@H](Cc1ccccc1)NC(=O)[C@@H](N)CC(N)=O)C(=O)O [NFNR]	225	–	–	–
CCCCC/C=C\C/C=C\C/C=C\CCCCCCC(=O)O[C@H](COC(=O)CCCCCCCCCCCC)COP(=O)([O-])OCC[N+](C)(C)C [PC(33:3)]	–	290.1	–	–
CC/C=C\C/C=C\C/C=C\C/C=C\C/C=C\C/C=C\CCC(=O)O[C@H](COC(=O)CCCCCCCCCCCC)COP(=O)([O-])OCC[N+](C)(C)C [PC(35:6)]	–	291.8	–	–
CC/C=C\C/C=C\C/C=C\C/C=C\C/C=C\C/C=C\CCC(=O)O[C@H](COC(=O)CCCCCCC/C=C\CCCC)COP(=O)([O-])OCC[N+](C)(C)C [PC(36:7)]	–	–	292.5	–
CC/C=C\C/C=C\C/C=C\C/C=C\C/C=C\C/C=C\CCC(=O)O[C@H](COC(=O)CCCCCCCCCCCCCC)COP(=O)([O-])OCC[N+](C)(C)C [PC(37:6)]	–	298.2	–	–
CC/C=C\C/C=C\C/C=C\C/C=C\C/C=C\CCCC(=O)O[C@H](COC(=O)CCCCCCC/C=C\CCCCCCCCC)COP(=O)([O-])OCC[N+](C)(C)C [PC(39:6)]	–	303.4	–	–
CC/C=C\C/C=C\C/C=C\C/C=C\C/C=C\C/C=C\CCC(=O)OC[C@H](COP(=O)([O-])OCC[N+](C)(C)C)OC(=O)CCCCCCC/C=C\CCCCCCC [PC(39:7)]	–	303.8	–	–
CC=CCC=CCC=CCC=CCC=CCC=CCC(=O)OC[C@H](COP(=O)(O)OCC[N+](C)(C)C)OC(=O)CC=CCC=CCC=CCC=CCC=CCC=CC [PC(40:12)]	–	–	300.6	–
CCCCCCCCCCCCCCCCCCCC(=O)O[C@H](COC(=O)CCCCCCCCCCCCCCCC)COP(=O)(O)OCCN [PE(37:0)]	–	297.8	–	–
CCCCCCCCC/C=C\CCCCCCCC(=O)O[C@H](COC(=O)CCCCCCCCCCCCCCCCC)COP(=O)(O)OCCN [PE(37:1)]	–	295	292.2	–
CCCCC/C=C\C/C=C\CCCCCCCC(=O)O[C@H](COC(=O)CCCCCCCCCCCCCCCCCC)COP(=O)(O)OCCN [PE(37:2)]	–	289.8	288.2	–
